Test results from article PMC11012124, “Synthesis of Novel Triazine-Based Chalcones and 8,9-dihydro-7H-pyrimido[4,5-b][1,4]diazepines as Potential Leads in the Search of Anticancer, Antibacterial and Antifungal Agents” (International Journal of Molecular Sciences, 2024).

Assays:
Experiment in all cases: cells
[1] = test system: UACC-62; conditions: Homo sapiens, UACC-62, 48 h; for CC50: read-out: LC50
[2] = test system: EKVX; conditions: Homo sapiens, 48 h; for CC50: read-out: LC50
[3] = test system: SNB-19; conditions: Homo sapiens, SNB-19, 48 h; for CC50: read-out: LC50
[4] = test system: U251; conditions: Homo sapiens, U-251, 48 h; for GI50: U251, 48 h; for CC50: read-out: LC50
[5] = test system: NCI-H522; conditions: Homo sapiens, NCI-H522, 48 h; for CC50: read-out: LC50
[6] = test system: MDA-MB-231/ATCC; conditions: Homo sapiens, MDA-MB-231, 48 h; for CC50: read-out: LC50
[7] = test system: CAKI-1; conditions: Homo sapiens, CAKI-1, 48 h; for CC50: read-out: LC50
[8] = test system: SK-MEL-28; conditions: Homo sapiens, SK-MEL-28, 48 h; for CC50: read-out: LC50
[9] = test system: K-562; conditions: Homo sapiens, K562, 48 h; for GI50: K-562, 48 h; for CC50: read-out: LC50
[10] = test system: CCRF-CEM; conditions: Homo sapiens, 48 h; for CC50: read-out: LC50
[11] = test system: HCC-2998; conditions: Homo sapiens, HCC 2998, 48 h; for CC50: read-out: LC50
[12] = test system: HT29; conditions: Homo sapiens, HT-29, 48 h; for CC50: read-out: LC50
[13] = test system: HL-60(TB); conditions: Homo sapiens, HL-60, 48 h; for CC50: read-out: LC50
[14] = test system: SN12C; conditions: Homo sapiens, 48 h; for CC50: read-out: LC50
[15] = test system: T-47D; conditions: Homo sapiens, T47D, 48 h; for CC50: read-out: LC50
[16] = test system: HOP-92; conditions: Homo sapiens, HOP-92, 48 h; for CC50: read-out: LC50
[17] = test system: UO-31; conditions: Homo sapiens, UO-31, 48 h; for CC50: read-out: LC50
[18] = test system: KM12; conditions: Homo sapiens, KM12, 48 h; for CC50: read-out: LC50
[19] = test system: 786-0; conditions: Homo sapiens, 786-0, 48 h; for CC50: read-out: LC50
[20] = test system: SF-539; conditions: Homo sapiens, SF-539, 48 h; for CC50: read-out: LC50, SF-539, 48 h
[21] = test system: MDA-MB-468; conditions: Homo sapiens, MDA-MB-468, 48 h; for CC50: read-out: LC50
[22] = test system: OVCAR-3; conditions: Homo sapiens, OVCAR-3, 48 h; for CC50: read-out: LC50
[23] = test system: MOLT-4; conditions: Homo sapiens, MOLT-4, 48 h
[24] = test system: SNB-75; conditions: Homo sapiens, SNB-75, 48 h; for CC50: read-out: LC50
[25] = test system: PC-3; conditions: Homo sapiens, PC-3, 48 h; for CC50: read-out: LC50
[26] = test system: UACC-257; conditions: Homo sapiens, UACC-257, 48 h; for CC50: read-out: LC50
[27] = test system: NCI-H460; conditions: Homo sapiens, NCI-H460, 48 h; for CC50: read-out: LC50
[28] = test system: COLO 205; conditions: Homo sapiens, COLO 205, 48 h; for CC50: read-out: LC50
[29] = test system: A498; conditions: Homo sapiens, A498, 48 h; for CC50: read-out: LC50
[30] = test system: HCT-116; conditions: Homo sapiens, HCT-116, 48 h; for CC50: read-out: LC50
[31] = test system: M14; conditions: Homo sapiens, M14, 48 h; for CC50: read-out: LC50
[32] = test system: A549/ATCC; conditions: Homo sapiens, A549, 48 h; for CC50: read-out: LC50
[33] = test system: HS 578T; conditions: Homo sapiens, 48 h; for CC50: read-out: LC50
[34] = test system: SF-268; conditions: Homo sapiens, SF-268, 48 h; for CC50: read-out: LC50
[35] = test system: SK-MEL-2; conditions: Homo sapiens, SK-MEL-2, 48 h; for CC50: read-out: LC50
[36] = test system: LOX IMVI; conditions: Homo sapiens, 48 h; for CC50: read-out: LC50, LOX IMVI, 48 h
[37] = test system: SK-MEL-5; conditions: Homo sapiens, SK-MEL-5, 48 h; for CC50: read-out: LC50

In the case of `Cc1ccc(/C=C/C(=O)c2ccc(S(=O)(=O)NCCNc3nc(Nc4ccc(F)cc4)nc(N(C)C)n3)cc2)cc1` [24b], the GI50 [1] is reported as 8.4 µM, the CC50 [1] is reported as 47.1 µM and the GI50 [2] is reported as 4.96 µM. The CC50 [2] was 43.3 µM, the GI50 [3] was 11 µM and the CC50 [3] was 50.2 µM. The GI50 [4] was 11.6 µM, the CC50 [4] was 58.7 µM and the GI50 [5] was 5.24 µM. The CC50 [5] was 45.3 µM, the GI50 [6] was 6.56 µM and the CC50 [6] was 48 µM. For the same compound, the GI50 [7] was 6.98 µM, the CC50 [7] was 58 µM and the GI50 [8] was 11.3 µM. For the same compound, the CC50 [8] was 49.6 µM, the GI50 [9] was 3.89 µM and the CC50 [9] was > 100 µM. The GI50 [10] was 5.28 µM, the CC50 [10] was > 100 µM and the GI50 [11] was 4.5 µM. For the same compound, the CC50 [11] was 41 µM, the GI50 [12] was 2.38 µM and the CC50 [12] was 16.2 µM. The GI50 [13] was 5.58 µM, the CC50 [13] was > 100 µM and the GI50 [14] was 11.2 µM. It also gave a CC50 [14] of 48.8 µM, a GI50 [15] of 3.86 µM and a CC50 [15] of 52.7 µM. The GI50 [16] was 7.63 µM, the CC50 [16] was 54 µM and the GI50 [17] was 6.77 µM. It also gave a CC50 [17] of 44.7 µM, a GI50 [18] of 5.41 µM and a CC50 [18] of 99.7 µM. For the same compound, the GI50 [19] was 10.5 µM, the CC50 [19] was 51 µM and the GI50 [20] was 13 µM. The CC50 [20] was 51.7 µM, the GI50 [21] was 4.66 µM and the CC50 [21] was 43 µM. The GI50 [22] was 11.3 µM, the CC50 [22] was 54.6 µM and the GI50 [23] was 3.86 µM. The CC50 ([23]; read-out: LC50) was > 100 µM, the GI50 [24] was 7.59 µM and the CC50 [24] was > 100 µM. It also gave a GI50 [25] of 3.54 µM, a CC50 [25] of 89.5 µM and a GI50 [26] of 17.4 µM. It also gave a CC50 [26] of 62.9 µM, a GI50 [27] of 4.22 µM and a CC50 [27] of 52.3 µM. For the same compound, the GI50 [28] was 6.51 µM, the CC50 [28] was 55.1 µM and the GI50 [29] was 12.6 µM. The CC50 [29] was 51.4 µM, the GI50 [30] was 1.75 µM and the CC50 [30] was 6.17 µM. It also gave a GI50 [31] of 5.91 µM, a CC50 [31] of 49.2 µM and a GI50 [32] of 10.5 µM. For the same compound, the CC50 [32] was 77.7 µM, the GI50 [33] was 10.7 µM and the CC50 [33] was > 100 µM. It also gave a GI50 [34] of 8.76 µM, a CC50 [34] of 90.9 µM and a GI50 [35] of 11.2 µM. For the same compound, the CC50 [35] was 52.3 µM, the GI50 [36] was 4.12 µM and the CC50 [36] was 39.3 µM. For the same compound, the GI50 [37] was 8.25 µM and the CC50 [37] was 45.9 µM.

In the case of `CN(C)c1nc(NCCNS(=O)(=O)c2ccc(C3=Nc4c(N)nc(N)nc4NC(c4ccc(Cl)cc4)C3)cc2)nc(Nc2ccc(F)cc2)n1` (stereo not drawn) [31e], the GI50 [1] is reported as 6.46 µM, the CC50 [1] is reported as > 100 µM and the GI50 [2] is reported as 5.05 µM. The CC50 [2] was > 100 µM, the GI50 [3] was 5.67 µM and the CC50 [3] was > 100 µM. The GI50 [4] was 5.14 µM, the CC50 [4] was > 100 µM and the GI50 [5] was 16 µM. The CC50 [5] was > 100 µM, the GI50 [6] was 3.73 µM and the CC50 [6] was 65.7 µM. For the same compound, the GI50 [7] was 8.07 µM, the CC50 [7] was > 100 µM and the GI50 [8] was 8.22 µM. For the same compound, the CC50 [8] was > 100 µM, the GI50 [9] was 3.08 µM and the CC50 [9] was > 100 µM. The GI50 [10] was 2.92 µM, the CC50 [10] was > 100 µM and the GI50 [11] was 3.14 µM. It also gave a CC50 [11] of 18.4 µM, a GI50 [12] of 2.68 µM and a CC50 [12] of 7.54 µM. For the same compound, the GI50 [13] was 2.72 µM, the CC50 [13] was 13.3 µM and the GI50 [14] was 7.37 µM. For the same compound, the CC50 [14] was > 100 µM, the GI50 [15] was 7.93 µM and the CC50 [15] was > 100 µM. For the same compound, the GI50 [16] was 2.53 µM, the CC50 [16] was 13.2 µM and the GI50 [17] was > 100 µM. For the same compound, the CC50 [17] was > 100 µM, the GI50 [18] was 3.98 µM and the CC50 [18] was > 100 µM. For the same compound, the GI50 [19] was 6.21 µM, the CC50 [19] was > 100 µM and the GI50 [20] was 3.3 µM. For the same compound, the CC50 [20] was > 100 µM, the GI50 [21] was 1.92 µM and the CC50 [21] was 4.92 µM. The GI50 [22] was 7.45 µM, the CC50 [22] was > 100 µM and the GI50 [23] was 2.68 µM. For the same compound, the GI50 [24] was 3.76 µM, the CC50 [24] was > 100 µM and the GI50 [25] was 3.44 µM. The CC50 [25] was > 100 µM, the GI50 [26] was 8.07 µM and the CC50 [26] was > 100 µM. For the same compound, the GI50 [27] was 4.49 µM, the CC50 [27] was > 100 µM and the GI50 [28] was 5.65 µM. The CC50 [28] was 25.6 µM, the GI50 [29] was 58.4 µM and the CC50 [29] was > 100 µM. For the same compound, the GI50 [30] was 3.77 µM, the CC50 [30] was > 100 µM and the GI50 [31] was 3.15 µM. The CC50 [31] was 11.5 µM, the GI50 [32] was > 100 µM and the CC50 [32] was > 100 µM. The GI50 [33] was 7.15 µM, the CC50 [33] was > 100 µM and the GI50 [34] was 5.74 µM. For the same compound, the CC50 [34] was > 100 µM, the GI50 [35] was 3.34 µM and the CC50 [35] was 14 µM. It also gave a GI50 [36] of 1.77 µM, a CC50 [36] of 3.55 µM and a GI50 [37] of 3.45 µM. The CC50 [37] was 14.3 µM.
